# Measured values as given in patent publication US10906910B2, “Substituted bicyclic pyrimidine compounds with tubulin and multiple receptor inhibition” (Duquesne University of the Holy Spirit, priority 2014, dated 2021).
# Where two headings read alike, the source gives them in different places.
# What was measured:
# EGFR = EGFR (Homo sapiens, UniProt P00533); assay: EGFR kinase inhibition, whole-cell assay; format: cell-based; conditions: read-out: kinase inhibition IC50 [whole-cell assays] EGFR
# wild type HeLa cells = assay: HeLa cytotoxicity, wild type; format: cell-based
# VEGFR2 = VEGFR2 (Homo sapiens, UniProt P35968); assay: VEGFR2 kinase inhibition, whole-cell assay; format: cell-based; conditions: read-out: kinase inhibition IC50 [whole-cell assays] VEGFR2
# PDGFRβ = PDGFRβ (Homo sapiens, UniProt P09619); assay: PDGFRβ kinase inhibition, whole-cell assay; format: cell-based; conditions: whole-cell assay; read-out: kinase inhibition IC50 [whole-cell assays] PDGFRβ
# MCF7 = assay: NCI 60 panel, Breast Cancer MCF7; format: cell-based; conditions: Homo sapiens, read-out: Tumor cell inhibitory activity (NCI) GI50
# SK-MEL-28 = assay: NCI 60 panel, Melanoma SK-MEL-28; format: cell-based; conditions: Homo sapiens, read-out: Tumor cell inhibitory activity (NCI) GI50
# HS 578T = assay: NCI 60 panel, Breast Cancer HS 578T; format: cell-based; conditions: Homo sapiens, read-out: Tumor cell inhibitory activity (NCI) GI50
# HOP-92 = assay: NCI 60 panel, NSCLC HOP-92; format: cell-based; conditions: Homo sapiens, read-out: Tumor cell inhibitory activity (NCI) GI50
# HL-60(TB) = assay: NCI 60 panel, Leukemia HL-60(TB); format: cell-based; conditions: Homo sapiens, read-out: Tumor cell inhibitory activity (NCI) GI50
# CCRF-CEM = assay: NCI 60 panel, Leukemia CCRF-CEM; format: cell-based; conditions: Homo sapiens, read-out: Tumor cell inhibitory activity (NCI) GI50
# OVCAR-8 = assay: NCI 60 panel, Ovarian cancer OVCAR-8; format: cell-based; conditions: Homo sapiens, read-out: Tumor cell inhibitory activity (NCI) GI50
# CAKI-1 = assay: NCI 60 panel, Renal Cancer CAKI-1; format: cell-based; conditions: Homo sapiens, read-out: Tumor cell inhibitory activity (NCI) GI50
# MALME-3M = assay: NCI 60 panel, Melanoma MALME-3M; format: cell-based; conditions: Homo sapiens, read-out: Tumor cell inhibitory activity (NCI) GI50
# COLO 205 = assay: NCI 60 panel, Colon Cancer COLO 205; format: cell-based; conditions: Homo sapiens, read-out: Tumor cell inhibitory activity (NCI) GI50
# [1] = test system: NCI 60 tumor cell line panel; assay: NCI 60 tumor cell line panel, overall; format: cell-based
# RPMI-8226 = assay: NCI 60 panel, Leukemia RPMI-8226; format: cell-based; conditions: Homo sapiens, read-out: Tumor cell inhibitory activity (NCI) GI50
# K-562 = assay: NCI 60 panel, Leukemia K-562; format: cell-based; conditions: Homo sapiens, K562, read-out: Tumor cell inhibitory activity (NCI) GI50
# U251 = assay: NCI 60 panel, CNS Cancer U251; format: cell-based; conditions: Homo sapiens, U-251, read-out: Tumor cell inhibitory activity (NCI) GI50
# BT-549 = assay: NCI 60 panel, Breast Cancer BT-549; format: cell-based; conditions: Homo sapiens, read-out: Tumor cell inhibitory activity (NCI) GI50
# DU-145 = assay: NCI 60 panel, Prostate Cancer DU-145; format: cell-based; conditions: Homo sapiens, read-out: Tumor cell inhibitory activity (NCI) GI50
# HCT-116 = assay: NCI 60 panel, Colon Cancer HCT-116; format: cell-based; conditions: Homo sapiens, read-out: Tumor cell inhibitory activity (NCI) GI50
# MDA-MB-468 = assay: NCI 60 panel, Breast Cancer MDA-MB-468; format: cell-based; conditions: Homo sapiens, read-out: Tumor cell inhibitory activity (NCI) GI50
# RXF 393 = assay: NCI 60 panel, Renal Cancer RXF 393; format: cell-based; conditions: Homo sapiens, read-out: Tumor cell inhibitory activity (NCI) GI50
# SF-539 = assay: NCI 60 panel, CNS Cancer SF-539; format: cell-based; conditions: Homo sapiens, read-out: Tumor cell inhibitory activity (NCI) GI50
# SK-OV-3 = assay: NCI 60 panel, Ovarian cancer SK-OV-3; format: cell-based; conditions: Homo sapiens, read-out: Tumor cell inhibitory activity (NCI) GI50
# SF-268 = assay: NCI 60 panel, CNS Cancer SF-268; format: cell-based; conditions: Homo sapiens, read-out: Tumor cell inhibitory activity (NCI) GI50
# 786-0 = assay: NCI 60 panel, Renal Cancer 786-0; format: cell-based; conditions: Homo sapiens, read-out: Tumor cell inhibitory activity (NCI) GI50
# SNB-75 = assay: NCI 60 panel, CNS Cancer SNB-75; format: cell-based; conditions: Homo sapiens, read-out: Tumor cell inhibitory activity (NCI) GI50
# NCI-H226 = assay: NCI 60 panel, NSCLC NCI-H226; format: cell-based; conditions: Homo sapiens, read-out: Tumor cell inhibitory activity (NCI) GI50
# MOLT-4 = assay: NCI 60 panel, Leukemia MOLT-4; format: cell-based; conditions: Homo sapiens, read-out: Tumor cell inhibitory activity (NCI) GI50
# MDA-MB-435 = assay: NCI 60 panel, Melanoma MDA-MB-435; format: cell-based; conditions: Homo sapiens, read-out: Tumor cell inhibitory activity (NCI) GI50
# OVCAR-5 = assay: NCI 60 panel, Ovarian cancer OVCAR-5; format: cell-based; conditions: Homo sapiens, read-out: Tumor cell inhibitory activity (NCI) GI50
# T-47D = assay: NCI 60 panel, Breast Cancer T-47D; format: cell-based; conditions: Homo sapiens, T47D, read-out: Tumor cell inhibitory activity (NCI) GI50
# ACHN = assay: NCI 60 panel, Renal Cancer ACHN; format: cell-based; conditions: Homo sapiens, read-out: Tumor cell inhibitory activity (NCI) GI50
# A549/ATCC = assay: NCI 60 panel, NSCLC A549/ATCC; format: cell-based; conditions: Homo sapiens, read-out: Tumor cell inhibitory activity (NCI) GI50
# LOX IMVI = assay: NCI 60 panel, Melanoma LOX IMVI; format: cell-based; conditions: Homo sapiens, read-out: Tumor cell inhibitory activity (NCI) GI50
# SW-620 = assay: NCI 60 panel, Colon Cancer SW-620; format: cell-based; conditions: Homo sapiens, read-out: Tumor cell inhibitory activity (NCI) GI50
# OVCAR-3 = assay: NCI 60 panel, Ovarian cancer OVCAR-3; format: cell-based; conditions: Homo sapiens, read-out: Tumor cell inhibitory activity (NCI) GI50
# NCI-H23 = assay: NCI 60 panel, NSCLC NCI-H23; format: cell-based; conditions: Homo sapiens, read-out: Tumor cell inhibitory activity (NCI) GI50
# HCC-2998 = assay: NCI 60 panel, Colon Cancer HCC-2998; format: cell-based; conditions: Homo sapiens, read-out: Tumor cell inhibitory activity (NCI) GI50
# SN12C = assay: NCI 60 panel, Renal Cancer SN12C; format: cell-based; conditions: Homo sapiens, read-out: Tumor cell inhibitory activity (NCI) GI50
# SK-MEL-5 = assay: NCI 60 panel, Melanoma SK-MEL-5; format: cell-based; conditions: Homo sapiens, read-out: Tumor cell inhibitory activity (NCI) GI50
# NCI-H522 = assay: NCI 60 panel, NSCLC NCI-H522; format: cell-based; conditions: Homo sapiens, read-out: Tumor cell inhibitory activity (NCI) GI50
# HCT-15 = assay: NCI 60 panel, Colon Cancer HCT-15; format: cell-based; conditions: Homo sapiens, read-out: Tumor cell inhibitory activity (NCI) GI50
# OVCAR-4 = assay: NCI 60 panel, Ovarian cancer OVCAR-4; format: cell-based; conditions: Homo sapiens, read-out: Tumor cell inhibitory activity (NCI) GI50
# SF-295 = assay: NCI 60 panel, CNS Cancer SF-295; format: cell-based; conditions: Homo sapiens, read-out: Tumor cell inhibitory activity (NCI) GI50
# KM12 = assay: NCI 60 panel, Colon Cancer KM12; format: cell-based; conditions: Homo sapiens, read-out: Tumor cell inhibitory activity (NCI) GI50
# UACC-257 = assay: NCI 60 panel, Melanoma UACC-257; format: cell-based; conditions: Homo sapiens, read-out: Tumor cell inhibitory activity (NCI) GI50
# NCI-H322M = assay: NCI 60 panel, NSCLC NCI-H322M; format: cell-based; conditions: Homo sapiens, read-out: Tumor cell inhibitory activity (NCI) GI50
# HOP-62 = assay: NCI 60 panel, NSCLC HOP-62; format: cell-based; conditions: Homo sapiens, read-out: Tumor cell inhibitory activity (NCI) GI50
# A498 = assay: NCI 60 panel, Renal Cancer A498; format: cell-based; conditions: Homo sapiens, read-out: Tumor cell inhibitory activity (NCI) GI50
# SNB-19 = assay: NCI 60 panel, CNS Cancer SNB-19; format: cell-based; conditions: Homo sapiens, read-out: Tumor cell inhibitory activity (NCI) GI50
# NCI-H460 = assay: NCI 60 panel, NSCLC NCI-H460; format: cell-based; conditions: Homo sapiens, read-out: Tumor cell inhibitory activity (NCI) GI50
# SR = assay: NCI 60 panel, Leukemia SR; format: cell-based; conditions: Homo sapiens, read-out: Tumor cell inhibitory activity (NCI) GI50
# UO-31 = assay: NCI 60 panel, Renal Cancer UO-31; format: cell-based; conditions: Homo sapiens, read-out: Tumor cell inhibitory activity (NCI) GI50
# TK10 = assay: NCI 60 panel, Renal Cancer TK10; format: cell-based; conditions: Homo sapiens, TK-10, read-out: Tumor cell inhibitory activity (NCI) GI50
# IGROVI = assay: NCI 60 panel, Ovarian cancer IGROVI; format: cell-based; conditions: read-out: Tumor cell inhibitory activity (NCI) GI50
# MDA-MB-231/ATCC = assay: NCI 60 panel, Breast Cancer MDA-MB-231/ATCC; format: cell-based; conditions: Homo sapiens, read-out: Tumor cell inhibitory activity (NCI) GI50
# UACC-62 = assay: NCI 60 panel, Melanoma UACC-62; format: cell-based; conditions: Homo sapiens, read-out: Tumor cell inhibitory activity (NCI) GI50
# M14 = assay: NCI 60 panel, Melanoma M14; format: cell-based; conditions: Homo sapiens, read-out: Tumor cell inhibitory activity (NCI) GI50
# EKVX = assay: NCI 60 panel, NSCLC EKVX; format: cell-based; conditions: Homo sapiens, read-out: Tumor cell inhibitory activity (NCI) GI50
# NCI/ADR-RES = assay: NCI 60 panel, Ovarian cancer NCI/ADR-RES; format: cell-based; conditions: Homo sapiens, read-out: Tumor cell inhibitory activity (NCI) GI50
# [2] = test system: βIII-tubulin overexpressing HeLa cell line; assay: HeLa cytotoxicity, βIII-tubulin overexpressing; format: cell-based; conditions: for IC50: βIII-tubulin overexpressing HeLa
# PDGFRβ, sequence (P09619 33-1106, species assumed): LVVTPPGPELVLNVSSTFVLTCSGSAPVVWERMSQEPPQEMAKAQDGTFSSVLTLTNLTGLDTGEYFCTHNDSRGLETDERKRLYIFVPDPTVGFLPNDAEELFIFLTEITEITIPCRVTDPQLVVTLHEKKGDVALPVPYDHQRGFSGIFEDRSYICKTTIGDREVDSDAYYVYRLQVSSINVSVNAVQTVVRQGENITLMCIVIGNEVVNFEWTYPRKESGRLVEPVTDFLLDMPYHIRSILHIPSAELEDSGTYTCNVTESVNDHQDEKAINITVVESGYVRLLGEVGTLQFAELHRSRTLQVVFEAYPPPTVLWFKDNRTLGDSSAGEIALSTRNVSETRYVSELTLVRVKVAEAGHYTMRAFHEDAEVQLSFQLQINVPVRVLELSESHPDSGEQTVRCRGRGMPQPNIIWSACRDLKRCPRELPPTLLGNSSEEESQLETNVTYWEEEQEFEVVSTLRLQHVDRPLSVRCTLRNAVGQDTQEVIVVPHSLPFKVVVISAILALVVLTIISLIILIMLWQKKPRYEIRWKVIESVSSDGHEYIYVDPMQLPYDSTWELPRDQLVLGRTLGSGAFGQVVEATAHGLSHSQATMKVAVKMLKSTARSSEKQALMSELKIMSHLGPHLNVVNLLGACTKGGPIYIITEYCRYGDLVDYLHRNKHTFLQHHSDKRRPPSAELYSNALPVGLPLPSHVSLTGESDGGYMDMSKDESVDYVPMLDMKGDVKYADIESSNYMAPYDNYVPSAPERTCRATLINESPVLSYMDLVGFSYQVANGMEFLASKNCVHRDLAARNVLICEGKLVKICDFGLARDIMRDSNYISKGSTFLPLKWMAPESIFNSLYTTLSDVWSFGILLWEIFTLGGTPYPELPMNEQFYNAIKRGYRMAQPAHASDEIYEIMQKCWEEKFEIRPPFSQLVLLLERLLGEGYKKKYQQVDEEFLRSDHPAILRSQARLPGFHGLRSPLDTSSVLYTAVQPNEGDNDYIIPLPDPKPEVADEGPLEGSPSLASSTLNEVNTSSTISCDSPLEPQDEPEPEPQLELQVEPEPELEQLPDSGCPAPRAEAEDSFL
# EGFR, sequence (P00533 25-1210, species assumed): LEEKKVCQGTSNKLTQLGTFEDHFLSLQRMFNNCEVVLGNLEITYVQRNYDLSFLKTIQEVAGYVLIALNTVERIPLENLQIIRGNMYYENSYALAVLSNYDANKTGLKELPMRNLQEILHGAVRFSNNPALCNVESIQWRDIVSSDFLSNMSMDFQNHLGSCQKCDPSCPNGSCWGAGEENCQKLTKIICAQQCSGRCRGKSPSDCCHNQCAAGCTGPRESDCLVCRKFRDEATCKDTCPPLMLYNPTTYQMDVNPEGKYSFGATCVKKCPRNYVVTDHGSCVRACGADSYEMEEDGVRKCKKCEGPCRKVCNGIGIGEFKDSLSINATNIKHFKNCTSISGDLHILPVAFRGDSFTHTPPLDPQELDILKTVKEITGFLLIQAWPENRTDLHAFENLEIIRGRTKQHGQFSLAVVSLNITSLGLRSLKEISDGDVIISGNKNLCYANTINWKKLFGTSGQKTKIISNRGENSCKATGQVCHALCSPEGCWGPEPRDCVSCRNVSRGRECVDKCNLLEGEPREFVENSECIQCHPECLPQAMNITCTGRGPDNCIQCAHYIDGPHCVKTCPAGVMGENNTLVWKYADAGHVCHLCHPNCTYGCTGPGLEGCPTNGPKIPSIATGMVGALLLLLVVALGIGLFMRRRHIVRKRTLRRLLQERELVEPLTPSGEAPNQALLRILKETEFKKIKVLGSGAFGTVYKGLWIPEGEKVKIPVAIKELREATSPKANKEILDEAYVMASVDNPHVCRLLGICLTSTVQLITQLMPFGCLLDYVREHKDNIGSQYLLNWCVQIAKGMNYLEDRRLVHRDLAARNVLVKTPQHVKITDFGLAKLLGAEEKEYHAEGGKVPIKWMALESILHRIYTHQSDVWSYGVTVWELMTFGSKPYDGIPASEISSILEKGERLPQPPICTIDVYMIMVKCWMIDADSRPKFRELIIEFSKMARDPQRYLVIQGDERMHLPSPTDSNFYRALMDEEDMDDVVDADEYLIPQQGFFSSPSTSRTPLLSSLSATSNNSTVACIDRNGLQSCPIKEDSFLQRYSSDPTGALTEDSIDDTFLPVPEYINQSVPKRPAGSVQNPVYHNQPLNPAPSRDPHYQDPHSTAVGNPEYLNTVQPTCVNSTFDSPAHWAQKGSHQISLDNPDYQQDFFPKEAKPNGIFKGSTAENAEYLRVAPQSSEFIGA
# VEGFR2, sequence (P35968 20-1356, species assumed): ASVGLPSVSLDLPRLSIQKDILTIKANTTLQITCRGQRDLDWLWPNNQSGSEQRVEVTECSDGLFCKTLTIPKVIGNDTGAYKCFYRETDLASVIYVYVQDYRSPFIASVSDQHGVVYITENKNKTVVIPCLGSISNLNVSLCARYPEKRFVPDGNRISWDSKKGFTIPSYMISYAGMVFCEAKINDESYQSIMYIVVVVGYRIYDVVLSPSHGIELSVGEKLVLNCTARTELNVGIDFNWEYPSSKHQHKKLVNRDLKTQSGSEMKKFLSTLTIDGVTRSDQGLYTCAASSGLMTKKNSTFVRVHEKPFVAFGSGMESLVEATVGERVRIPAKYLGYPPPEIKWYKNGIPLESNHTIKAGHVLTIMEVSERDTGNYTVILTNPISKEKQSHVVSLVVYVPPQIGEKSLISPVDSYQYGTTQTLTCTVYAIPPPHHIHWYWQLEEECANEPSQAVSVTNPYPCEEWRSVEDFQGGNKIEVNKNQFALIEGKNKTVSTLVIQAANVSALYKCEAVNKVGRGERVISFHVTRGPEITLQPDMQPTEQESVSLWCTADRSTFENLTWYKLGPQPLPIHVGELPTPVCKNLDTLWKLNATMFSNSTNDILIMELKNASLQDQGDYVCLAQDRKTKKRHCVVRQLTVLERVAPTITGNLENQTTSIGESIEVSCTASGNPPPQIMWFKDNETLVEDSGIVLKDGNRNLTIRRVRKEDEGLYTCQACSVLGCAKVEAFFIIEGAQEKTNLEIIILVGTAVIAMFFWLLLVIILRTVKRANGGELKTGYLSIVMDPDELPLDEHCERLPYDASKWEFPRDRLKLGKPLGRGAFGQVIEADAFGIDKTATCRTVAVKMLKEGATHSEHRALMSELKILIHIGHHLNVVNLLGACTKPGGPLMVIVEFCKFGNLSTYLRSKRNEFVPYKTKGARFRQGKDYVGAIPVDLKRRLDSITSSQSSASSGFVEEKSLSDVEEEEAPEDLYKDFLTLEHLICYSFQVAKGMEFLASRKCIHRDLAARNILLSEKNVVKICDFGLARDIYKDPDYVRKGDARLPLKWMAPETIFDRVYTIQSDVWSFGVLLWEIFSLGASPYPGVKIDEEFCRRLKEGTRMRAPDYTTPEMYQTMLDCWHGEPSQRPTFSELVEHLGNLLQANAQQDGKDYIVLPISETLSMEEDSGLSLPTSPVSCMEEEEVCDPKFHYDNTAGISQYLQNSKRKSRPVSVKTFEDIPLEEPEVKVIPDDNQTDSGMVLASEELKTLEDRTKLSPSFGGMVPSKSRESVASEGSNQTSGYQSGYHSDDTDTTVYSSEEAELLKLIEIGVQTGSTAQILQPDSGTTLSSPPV
smiles,measurement,setting,value
"COc1ccc2c(c1)CCCN2c1nc(C)nc2c(Cc3ccccc3)cn(C)c12 [Compound 5, 1-(7-Benzyl-2,5-dimethyl-5H-pyrrolo[3,2-d]pyrimidin-4-yl)-6-methoxy-1,2,3,4-tetrahydroquinoline]",melting point,,130 to 132 °C
same,IC50,EGFR,4.9 ± 0.6 nM
same,IC50,wild type HeLa cells; Homo sapiens,60 nM
same,IC50,VEGFR2,32.9 nM
same,IC50,PDGFRβ,30.2 nM
"COc1ccc2c(c1)CCCN2c1nc(C)nc2c(Cc3ccccc3)c[nH]c12 [Compound 2, 1-(7-Benzyl-2-methyl-5H-pyrrolo[3,2-d]pyrimidin-4-yl)-6-methoxy-1,2,3,4-tetrahydroquinoline]",GI50,MCF7,248 nM
same,GI50,SK-MEL-28,368 nM
same,GI50,HS 578T,582 nM
same,GI50,HOP-92,189 nM
same,GI50,HL-60(TB),222 nM
same,GI50,CCRF-CEM,226 nM
same,GI50,OVCAR-8,487 nM
same,GI50,CAKI-1,341 nM
same,GI50,MALME-3M,330 nM
same,GI50,COLO 205,232 nM
same,"GI50 across the NCI 60 tumor cell line panel, in words",[1],2- to 3-digit nanomolar
same,GI50,RPMI-8226,266 nM
same,GI50,K-562,111 nM
same,GI50,U251,316 nM
same,GI50,BT-549,755 nM
same,GI50,DU-145,383 nM
same,GI50,HCT-116,368 nM
same,GI50,MDA-MB-468,153 nM
same,GI50,RXF 393,212 nM
same,GI50,SF-539,260 nM
same,GI50,SK-OV-3,423 nM
same,GI50,SF-268,723 nM
same,GI50,786-0,934 nM
same,GI50,SNB-75,182 nM
same,GI50,NCI-H226,136 nM
same,GI50,MOLT-4,345 nM
same,GI50,MDA-MB-435,341 nM
same,GI50,OVCAR-5,543 nM
same,GI50,T-47D,128 nM
same,GI50,ACHN,830 nM
same,GI50,A549/ATCC,406 nM
same,GI50,LOX IMVI,521 nM
same,GI50,SW-620,370 nM
same,GI50,OVCAR-3,285 nM
same,GI50,NCI-H23,320 nM
same,GI50,HCC-2998,318 nM
same,GI50,SN12C,618 nM
same,IC50,EGFR,33.6 nM
same,GI50,SK-MEL-5,325 nM
same,IC50,wild type HeLa cells; Homo sapiens,250 nM
same,GI50,NCI-H522,316 nM
same,GI50,HCT-15,366 nM
same,GI50,OVCAR-4,468 nM
same,GI50,SF-295,192 nM
same,GI50,KM12,366 nM
same,GI50,UACC-257,108 nM
same,GI50,NCI-H322M,362 nM
same,GI50,HOP-62,379 nM
same,GI50,A498,197 nM
same,GI50,SNB-19,549 nM
same,GI50,NCI-H460,337 nM
same,GI50,SR,922 nM
same,GI50,UO-31,390 nM
same,GI50,TK10,123 nM
same,GI50,IGROVI,440 nM
same,GI50,MDA-MB-231/ATCC,641 nM
same,GI50,UACC-62,659 nM
same,GI50,M14,252 nM
same,GI50,EKVX,463 nM
same,IC50,PDGFRβ,90.3 nM
same,GI50,NCI/ADR-RES,265 nM
"COc1ccc(/C=C\c2cc(OC)c(OC)c(OC)c2)cc1O [combretastatin A-4, reference compound]",IC50,[2],2.5 ± 0.7 nM
same,IC50,wild type HeLa cells,1.8 nM
CC(=O)O[C@@]12CO[C@@H]1C[C@H](O)[C@@]1(C)C(=O)[C@H](O)C3=C(C)[C@@H](OC(=O)[C@H](O)[C@@H](NC(=O)OC(C)(C)C)c4ccccc4)C[C@@](O)([C@@H](OC(=O)c4ccccc4)[C@H]21)C3(C)C [docetaxel],fold less potent in βIII-tubulin overexpressing cell line than in wild type HeLa cells,[2],3 fold
same,IC50,[2]; Homo sapiens,13 ± 4 nM
same,IC50,wild type HeLa cells; Homo sapiens,4 ± 2 nM
